Source: ChEMBL document CHEMBL5291721, “A preclinical secondary pharmacology resource illuminates target-adverse drug reaction associations of marketed drugs” (Nat Commun, 2023)

How the values were obtained:
Progesterone receptor = molecular target: T1, Progesterone receptor (Homo sapiens, UniProt P06401)
T1 sequence (P06401 whole entry): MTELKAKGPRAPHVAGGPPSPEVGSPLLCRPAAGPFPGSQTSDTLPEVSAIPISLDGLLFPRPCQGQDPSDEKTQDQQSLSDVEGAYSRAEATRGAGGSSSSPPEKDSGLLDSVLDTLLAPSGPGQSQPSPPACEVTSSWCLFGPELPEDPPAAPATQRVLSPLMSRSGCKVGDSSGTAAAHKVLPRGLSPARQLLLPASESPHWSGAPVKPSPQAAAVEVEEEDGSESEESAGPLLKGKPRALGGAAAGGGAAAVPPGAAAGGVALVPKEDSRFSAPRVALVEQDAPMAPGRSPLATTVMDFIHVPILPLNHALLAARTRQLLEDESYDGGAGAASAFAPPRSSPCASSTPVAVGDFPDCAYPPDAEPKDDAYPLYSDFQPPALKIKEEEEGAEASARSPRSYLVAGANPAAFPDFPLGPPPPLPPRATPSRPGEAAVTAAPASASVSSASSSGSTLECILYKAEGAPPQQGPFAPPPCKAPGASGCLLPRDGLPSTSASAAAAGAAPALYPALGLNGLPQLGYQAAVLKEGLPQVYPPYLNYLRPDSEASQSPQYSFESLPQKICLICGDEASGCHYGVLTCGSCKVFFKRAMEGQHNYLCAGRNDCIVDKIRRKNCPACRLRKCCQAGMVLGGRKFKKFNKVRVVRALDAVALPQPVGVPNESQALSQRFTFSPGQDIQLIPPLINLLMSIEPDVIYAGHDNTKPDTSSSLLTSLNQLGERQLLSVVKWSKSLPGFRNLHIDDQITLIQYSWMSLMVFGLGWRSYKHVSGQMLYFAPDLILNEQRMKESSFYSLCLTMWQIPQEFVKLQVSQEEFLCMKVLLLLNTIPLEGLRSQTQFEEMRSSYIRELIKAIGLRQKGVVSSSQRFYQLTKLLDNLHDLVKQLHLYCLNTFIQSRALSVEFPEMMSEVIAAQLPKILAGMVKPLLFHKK

[1] = molecular target: T2, Alpha-2A adrenergic receptor (Homo sapiens, UniProt P08913)
T2 sequence (P08913 whole entry): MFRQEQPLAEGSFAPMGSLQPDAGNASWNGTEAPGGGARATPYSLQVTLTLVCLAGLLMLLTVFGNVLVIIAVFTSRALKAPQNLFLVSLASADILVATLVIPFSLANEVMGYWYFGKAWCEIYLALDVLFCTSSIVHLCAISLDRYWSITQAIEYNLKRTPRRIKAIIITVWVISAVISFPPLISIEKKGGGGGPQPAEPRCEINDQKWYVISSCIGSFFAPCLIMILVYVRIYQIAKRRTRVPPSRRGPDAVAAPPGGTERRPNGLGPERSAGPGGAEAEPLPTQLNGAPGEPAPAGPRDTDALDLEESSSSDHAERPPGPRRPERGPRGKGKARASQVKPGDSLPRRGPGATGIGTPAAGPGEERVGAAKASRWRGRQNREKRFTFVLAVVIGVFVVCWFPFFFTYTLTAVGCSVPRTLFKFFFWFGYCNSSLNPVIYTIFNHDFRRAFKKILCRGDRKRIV

B1 bradykinin receptor = molecular target: T3, B1 bradykinin receptor (Homo sapiens, UniProt P46663)
T3 sequence (P46663 whole entry): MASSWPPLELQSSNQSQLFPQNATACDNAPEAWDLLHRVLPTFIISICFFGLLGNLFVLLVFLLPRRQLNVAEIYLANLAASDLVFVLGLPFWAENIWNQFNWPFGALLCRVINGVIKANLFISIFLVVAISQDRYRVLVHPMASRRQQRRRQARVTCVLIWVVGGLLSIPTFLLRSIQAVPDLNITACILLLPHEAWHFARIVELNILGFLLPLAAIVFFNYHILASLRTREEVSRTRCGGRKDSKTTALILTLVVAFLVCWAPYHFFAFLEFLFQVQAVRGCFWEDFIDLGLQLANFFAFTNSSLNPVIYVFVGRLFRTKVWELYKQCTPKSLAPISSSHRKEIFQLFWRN

[2] = molecular target: T4, Gastric inhibitory polypeptide receptor (Homo sapiens, UniProt P48546)
T4 sequence (P48546 whole entry): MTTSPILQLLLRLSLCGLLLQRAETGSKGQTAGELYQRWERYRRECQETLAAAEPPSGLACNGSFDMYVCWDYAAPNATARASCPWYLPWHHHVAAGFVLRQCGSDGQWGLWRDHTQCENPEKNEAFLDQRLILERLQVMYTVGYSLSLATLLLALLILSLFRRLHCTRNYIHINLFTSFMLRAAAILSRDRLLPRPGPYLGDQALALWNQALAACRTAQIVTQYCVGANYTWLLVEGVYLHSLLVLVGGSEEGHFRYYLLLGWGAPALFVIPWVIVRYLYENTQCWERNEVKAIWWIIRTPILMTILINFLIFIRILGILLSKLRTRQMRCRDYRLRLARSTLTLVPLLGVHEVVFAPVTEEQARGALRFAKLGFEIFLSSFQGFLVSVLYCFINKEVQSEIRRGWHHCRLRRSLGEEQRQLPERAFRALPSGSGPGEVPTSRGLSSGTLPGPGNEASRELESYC

[3] = molecular target: T5, Neuropeptide Y receptor type 2 (Homo sapiens, UniProt P49146)
T5 sequence (P49146 whole entry): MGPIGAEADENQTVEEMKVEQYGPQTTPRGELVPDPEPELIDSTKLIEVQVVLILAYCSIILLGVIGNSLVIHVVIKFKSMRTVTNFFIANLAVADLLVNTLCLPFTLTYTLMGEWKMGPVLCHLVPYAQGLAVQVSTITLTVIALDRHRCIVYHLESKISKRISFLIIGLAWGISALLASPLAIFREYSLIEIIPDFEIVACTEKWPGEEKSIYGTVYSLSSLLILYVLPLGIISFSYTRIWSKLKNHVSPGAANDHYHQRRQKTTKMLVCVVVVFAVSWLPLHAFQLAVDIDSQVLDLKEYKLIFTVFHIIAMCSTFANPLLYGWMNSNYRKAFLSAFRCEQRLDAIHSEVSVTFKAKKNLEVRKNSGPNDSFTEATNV

D(1A) dopamine receptor = D(1A) dopamine receptor (Homo sapiens, UniProt P21728)
[4] = molecular target: 5-hydroxytryptamine receptor 2B (Homo sapiens, UniProt P41595)
Also: assay procedure not described here.

D(1A) dopamine receptor, sequence (P21728 whole entry): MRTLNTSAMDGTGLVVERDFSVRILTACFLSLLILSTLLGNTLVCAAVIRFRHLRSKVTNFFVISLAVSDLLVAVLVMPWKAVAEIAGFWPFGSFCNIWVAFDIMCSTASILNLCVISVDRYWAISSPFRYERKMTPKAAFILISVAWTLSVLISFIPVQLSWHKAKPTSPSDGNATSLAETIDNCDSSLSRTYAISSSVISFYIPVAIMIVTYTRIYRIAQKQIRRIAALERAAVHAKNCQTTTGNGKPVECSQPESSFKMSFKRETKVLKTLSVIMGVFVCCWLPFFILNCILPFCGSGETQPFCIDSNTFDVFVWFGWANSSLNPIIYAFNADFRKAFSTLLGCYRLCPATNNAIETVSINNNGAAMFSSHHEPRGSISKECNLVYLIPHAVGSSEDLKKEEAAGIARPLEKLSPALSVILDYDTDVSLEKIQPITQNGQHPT
5-hydroxytryptamine receptor 2B, sequence (P41595 whole entry): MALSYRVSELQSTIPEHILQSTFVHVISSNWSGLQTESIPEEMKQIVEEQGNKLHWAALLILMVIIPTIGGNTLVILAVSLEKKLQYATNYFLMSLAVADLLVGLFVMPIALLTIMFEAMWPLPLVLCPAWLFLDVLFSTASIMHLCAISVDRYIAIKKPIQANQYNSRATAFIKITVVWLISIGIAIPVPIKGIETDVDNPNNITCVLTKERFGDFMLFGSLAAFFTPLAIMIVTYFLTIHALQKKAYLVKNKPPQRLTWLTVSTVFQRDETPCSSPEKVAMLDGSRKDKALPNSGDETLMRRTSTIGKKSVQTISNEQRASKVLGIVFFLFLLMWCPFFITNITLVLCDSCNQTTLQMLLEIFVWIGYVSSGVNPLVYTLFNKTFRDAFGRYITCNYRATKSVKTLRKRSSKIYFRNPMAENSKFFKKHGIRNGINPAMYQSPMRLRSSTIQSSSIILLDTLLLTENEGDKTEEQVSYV

SMILES	AC50 (Progesterone receptor)	AC50 [1]	AC50 (B1 bradykinin receptor)	AC50 [2]	AC50 [3]	AC50 (D(1A) dopamine receptor)	AC50 [4]
Cc1cc(=O)n(-c2ccccc2)n1C [ANTIPYRINE]	> 30 µM	> 10 µM					
NS(=O)(=O)c1cc2c(cc1Cl)N=C(CSCc1ccccc1)NS2(=O)=O [BENZTHIAZIDE]		2.48 µM					
COc1cc(N)c(Cl)cc1C(=O)NC1CCN(CCCOc2ccc(F)cc2)CC1OC (stereo unspecified) [CISAPRIDE]	> 30 µM		> 30 µM	> 30 µM	> 30 µM	> 10 µM	
CCOC(=O)C(C)(C)Oc1ccc(Cl)cc1 [CLOFIBRATE]	> 30 µM		> 30 µM	> 30 µM	> 30 µM	> 10 µM	
CCCCOc1ccc(C(=O)CCN2CCCCC2)cc1 [DYCLONINE]	> 30 µM	> 10 µM	> 30 µM	> 30 µM	> 30 µM	> 10 µM	> 10 µM
CC(C)NC[C@H](O)COc1ccc(CC(N)=O)cc1 [ESATENOLOL]	> 30 µM	> 10 µM	> 30 µM	> 30 µM	> 30 µM		
NNC(=O)c1ccncc1 [ISONIAZID]	> 30 µM	> 10 µM	> 30 µM	> 30 µM	> 30 µM	> 10 µM	> 10 µM
O=C1Nc2ccc(Cl)cc2C(c2ccccc2Cl)=NC1O (stereo unspecified) [LORAZEPAM]	26.2 µM	> 10 µM	> 30 µM	> 30 µM	> 30 µM	> 10 µM	> 10 µM
Cc1ccnc2c1NC(=O)c1cccnc1N2C1CC1 [NEVIRAPINE]	> 30 µM	> 10 µM	> 30 µM	> 30 µM	> 30 µM	> 10 µM	> 10 µM
Fc1ccc([C@@H]2CCNC[C@H]2COc2ccc3c(c2)OCO3)cc1 [PAROXETINE]	> 30 µM		> 30 µM	> 30 µM	> 30 µM	> 10 µM	11.9 µM
CCC(NC(C)C)C(O)c1ccc(O)c2[nH]c(=O)ccc12 (stereo unspecified) [PROCATEROL]						> 30 µM	
CCC(=O)O[C@](Cc1ccccc1)(c1ccccc1)[C@H](C)CN(C)C [PROPOXYPHENE]	> 30 µM	> 10 µM	> 30 µM	> 30 µM	> 30 µM	> 10 µM	> 10 µM
CCc1nc(N)nc(N)c1-c1ccc(Cl)cc1 [PYRIMETHAMINE]		> 10 µM					> 10 µM
O=c1c(O)c(-c2ccc(O)c(O)c2)oc2cc(O)cc(O)c12 [QUERCETIN]	14.1 µM	> 10 µM	> 30 µM	> 30 µM	> 30 µM	> 10 µM	19.4 µM
C=CCN1CCc2nc(N)sc2CC1 [TALIPEXOLE]		0.98 µM					
CCOC(=O)c1ccc(C#Cc2ccc3c(c2)C(C)(C)CCS3)nc1 [TAZAROTENE]	> 30 µM						
